# Measurements: patent publication US8592435B2, “Nitrogen-containing six-membered aromatic ring derivatives and pharmaceutical products containing the same” (Daiichi Sankyo Company, Limited, priority 2007, dated 2013)
# Columns and labels:
# [1] = test system: myocardial infarction model (LAD occluded); test: Test Example 5: myocardial infarction model in rats; assay type: in vivo, Slc:SD rats; conditions: oral once daily 0.01, 0.1 or 1.0 mg/kg for 28 days, 4 weeks after myocardial infarction
# Protocol: According to the method of Masakatsu Wakeno et al. [Circulation 114: 1923-1932 (2006)], 10-week-old male Slc:SD rats were anesthetized with pentobarbital and cut open in the chest area. The left anterior descending coronary artery (LAD) was completely occluded to establish a myocardial infarction model. Sham group underwent only thoracic surgical procedure.
# The test compound used was Example Compound 65, which was orally administered once daily at a dose of 0.01 mg/kg, 0.1 mg/kg or 1.0 mg/kg for 28 days starting from the day of establishment of myocardial infarction model (after awakening from anesthesia).
# 4 weeks after establishing myocardial infarction, animals were anesthetized with pentobarbital and monitored for their cardiachemodynamics using a mirror catheter. Subsequently, blood samples were collected from the abdominal aorta, wet lung weight was measured, and plasma BNP levels after arterial blood sampling were measured (RIA).
# FIGS. 7, 8, 9 and 10 show the results of LVEDP, LVdP/dt max, lung weight and plasma […] levels, respectively.
# #: P<0.05, ##: P<0.01 between sham and control by Student's t-test
# *: P<0.05, **: P<0.01: vs control by Dunnett's test
# [2] = Repeated oral administration toxicity in rats; assay type: in vivo; conditions: orally administered repeatedly once a day for one week, 150 mg/kg/day
# hippocampal neurons = test: Test Example 1: ability to promote axonal outgrowth; assay type: cell-based, Wistar rats; conditions: Hippocampal neuron, 216 h; Compound Conc. = 3 μM; % of control; rat hippocampal neurons, day 9; read-out: Promotion of axonal outgrowth (%)
# Summary of the method: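 Embryonic day-18 Wistar rat hippocampal neurons were cultured at 37° C, treated with AraC from day 3, and given compound at 3 μM and 0.3 μM on days 3 and 7. On day 9, GAP-43-stained axons were quantified and expressed as % of control; bFGF-based threshold is 120.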
# [3] = test system: critical limb ischemia model (left femoral artery excised); test: Test Example 4: lower limb ischemia (critical limb ischemia) model in mice; assay type: in vivo, Balb/c mice; conditions: oral once daily 0.1 or 1.0 mg/kg for 10 days from femoral artery excision, vs Vehicle
# Protocol: According to the method of Ichiro Masaki [Circ Res. 90; 966-973 (2002)], the left femoral artery of Balb/c mice was excised to establish a model of critical limb ischemia (n=29 to 30).
# Test compounds used were Example Compounds 65, 92, 114, 130, 135 and 136, each of which was orally administered once daily at a dose of 0.1 mg/kg or 1.0 mg/kg for 10 days starting from the day of femoral artery excision.
# The results are shown in FIGS. 1 to 6 in which FIGS. 1, 2, 3, 4, 5 and 6 show the results of Example Compounds 65, 92, 114, 130, 135 and 136, respectively.
# In the figures, a thick solid line indicates a Vehicle group, a thin dotted line indicates a group administered 0.1 mg/kg/day of each compound, and a thin solid line indicates a group administered 1.0 mg/kg/day of each compound.
# *: P<0.05, **: P<0.01, ***: P<0.001 vs Vehicle by Wilcoxon's test.
structure (smiles),measurement,setting,value
"Cc1nc(OCC(=O)N(C)C2CCN(Cc3ccccc3)CC2)nc(C)c1N [Compound 65, 2-(5-amino-4,6-dimethylpyrimidine-2-yloxy)-N-(1-benzylpiperidine-4-yl)-N-methylacetamide]",end-diastolic pressure (LVEDP),[1],suppressed
same,maximum left ventricular contraction and diastolic velocity (LVdP/dt max),[1],suppressed the decrease
same,wet lung weight,[1],suppressed
same,plasma BNP levels,[1]; RIA,suppressed the increase
same,toxicity,[2],did not exhibit toxicity
same,activity at 3 µM,hippocampal neurons,134%
same,survival rate of lower limb,[3],increased survival rate
